Data set [1] has as its system human T-cell lymphoblastic leukemia CCRF-CEM/Taxol xenograft. Description: CCRF-CEM/Taxol xenograft in nude mice. It is filed as in vivo.
The subject of data set [2] is paclitaxel resistant human lung carcinoma A549/Taxol xenograft. As to conditions: 20 mg/kg.
Data set [3] has the same test system. Description: A549/Taxol xenograft in nude mice.

This note sets out measurements from patent US7875638B2, “Synthesis of epothilones, intermediates thereto, analogues and uses thereof” (Sloan-Kettering Institute for Cancer Research, priority 2002, dated 2011).

“And” between values parts separate entries of the source, which are not always exact repeats. Equal values may be shown once.

Turning to `C/C(=C\c1csc(C)n1)[C@@H]1C/C=C(/C(F)(F)F)C/C=C/[C@H](C)[C@H](O)[C@@H](C)C(=O)C(C)(C)[C@@H](O)CC(=O)O1` [Compound 29, 26-trifluoro-trans-9,10-dehydro-12,13-desoxyepothilone B], the “Final tumor suppression on D34” value in data set [1] (15 mg/kg) amounted to 98.8%. Moreover, the “Tumor disappearance (mice)” value in data set [1] (15 mg/kg, 6 hr-i.v. infusion, Q2Dx7 then Q2Dx5) was 1 out of 4; in data set [1] (15 mg/kg, 6 hr-i.v. infusion, Q2Dx7 then Q2Dx5, listed as 26-F3-9,10-deH-dEpo B), 1/3; in data set [1] (15 mg/kg, 6 hr-i.v. infusion, Q2Dx7 then Q2Dx5, listed as Fludelone), 1/3; in data set [1] (30 mg/kg Q2Dx7, 6 hr-i.v. infusion (first cycle)), 2 out of 4; in data set [1] (30 mg/kg, 6 hr-i.v. infusion, Q2Dx7 then Q2Dx5, listed as 26-F3-9,10-deH-dEpo B) it was “¾”; in data set [1] (30 mg/kg, 6 hr-i.v. infusion, Q2Dx7 then Q2Dx5, listed as Fludelone), 3 out of 4 and 3/4. In data set [1] (30 mg/kg, Q2Dx7 then Q2Dx5), this compound gave a Final tumor suppression of 99.8%. Also, in data set [2], the “Tumor reduction, % of the pretreatment control” value was determined as 24.4%. Also, in data set [3] (20 mg/kg), the “Body weight recovery upon suspension of drug treatment, % of the pretreatment control” value came out at 90%. In data set [3] (20 mg/kg), the “Maximal body weight decrease” value was 24%. Further, the Tumor growth suppression result in data set [3] (29: 20 mg/kg, 28: 4 mg/kg) is on record as “totally suppressed”.
